Test results taken from US10526316B2, “Quinoxaline and pyridopyrazine derivatives as PI3Kβ inhibitors” (Janssen Pharmaceutica NV, priority 2015, dated 2020).
Where two headings read alike, the source gives them in different places.

Tests used:
[1] = molecular target: T1, PI3Kβ (Homo sapiens, UniProt P42338); experiment: Enzyme binding assay (KINOMEscan, DiscoveRx); settings: PIK3Cβ_h, read-out: Kd PIK3Cβ_h
T1 construct: purchased DiscoveRx Corporation, San Diego (contract service, KINOMEscan)
In short: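 Compounds are profiled for binding to the kinase using KINOMEscan. The affinity is then reported as an inhibitor Kd in nanomolar units.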

[2] = molecular target: T2, PI3Kδ (Homo sapiens, UniProt O00329); experiment: Enzyme binding assay (KINOMEscan, DiscoveRx); settings: PIK3Cδ_h
T2 construct: purchased DiscoveRx Corporation, San Diego (contract service, KINOMEscan)
T2 sequence (O00329 1-1044): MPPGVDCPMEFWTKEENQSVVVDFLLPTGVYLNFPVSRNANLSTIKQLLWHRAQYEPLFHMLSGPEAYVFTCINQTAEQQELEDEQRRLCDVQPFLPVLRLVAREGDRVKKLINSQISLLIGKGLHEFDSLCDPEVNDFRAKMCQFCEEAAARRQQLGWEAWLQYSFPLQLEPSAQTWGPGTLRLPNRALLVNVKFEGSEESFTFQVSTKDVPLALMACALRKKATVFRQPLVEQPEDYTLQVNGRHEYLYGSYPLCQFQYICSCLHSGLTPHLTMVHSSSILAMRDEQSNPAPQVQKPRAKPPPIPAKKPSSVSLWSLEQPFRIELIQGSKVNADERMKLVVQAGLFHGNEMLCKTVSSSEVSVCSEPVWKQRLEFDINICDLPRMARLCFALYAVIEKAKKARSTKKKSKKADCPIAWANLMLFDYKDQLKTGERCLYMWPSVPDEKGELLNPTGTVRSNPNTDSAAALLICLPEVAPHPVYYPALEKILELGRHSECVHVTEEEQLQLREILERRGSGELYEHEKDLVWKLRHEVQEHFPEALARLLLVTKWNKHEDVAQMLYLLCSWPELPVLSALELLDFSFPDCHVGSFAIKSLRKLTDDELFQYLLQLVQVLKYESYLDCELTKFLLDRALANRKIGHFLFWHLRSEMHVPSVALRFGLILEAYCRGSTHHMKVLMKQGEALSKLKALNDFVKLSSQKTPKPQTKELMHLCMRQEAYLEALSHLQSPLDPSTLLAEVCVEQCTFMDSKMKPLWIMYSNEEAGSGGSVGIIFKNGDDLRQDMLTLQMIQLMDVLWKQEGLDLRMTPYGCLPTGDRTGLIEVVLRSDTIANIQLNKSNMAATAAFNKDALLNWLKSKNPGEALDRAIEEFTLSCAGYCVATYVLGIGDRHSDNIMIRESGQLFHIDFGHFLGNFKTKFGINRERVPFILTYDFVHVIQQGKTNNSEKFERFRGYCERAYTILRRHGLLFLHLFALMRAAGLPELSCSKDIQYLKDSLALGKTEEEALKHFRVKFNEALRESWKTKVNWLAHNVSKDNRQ
In short: (§1)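 Compounds were profiled by KINOMEscan to obtain kinase binding affinities.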

[3] = molecular target: T3, kinase enzymes (Homo sapiens, UniProt P42336); experiment: Enzyme binding assay (KINOMEscan, DiscoveRx), further kinases of Table A; settings: PIK3Cα_h
T3 construct: purchased DiscoveRx Corporation, San Diego (contract service, KINOMEscan)
T3 sequence (P42336 whole entry): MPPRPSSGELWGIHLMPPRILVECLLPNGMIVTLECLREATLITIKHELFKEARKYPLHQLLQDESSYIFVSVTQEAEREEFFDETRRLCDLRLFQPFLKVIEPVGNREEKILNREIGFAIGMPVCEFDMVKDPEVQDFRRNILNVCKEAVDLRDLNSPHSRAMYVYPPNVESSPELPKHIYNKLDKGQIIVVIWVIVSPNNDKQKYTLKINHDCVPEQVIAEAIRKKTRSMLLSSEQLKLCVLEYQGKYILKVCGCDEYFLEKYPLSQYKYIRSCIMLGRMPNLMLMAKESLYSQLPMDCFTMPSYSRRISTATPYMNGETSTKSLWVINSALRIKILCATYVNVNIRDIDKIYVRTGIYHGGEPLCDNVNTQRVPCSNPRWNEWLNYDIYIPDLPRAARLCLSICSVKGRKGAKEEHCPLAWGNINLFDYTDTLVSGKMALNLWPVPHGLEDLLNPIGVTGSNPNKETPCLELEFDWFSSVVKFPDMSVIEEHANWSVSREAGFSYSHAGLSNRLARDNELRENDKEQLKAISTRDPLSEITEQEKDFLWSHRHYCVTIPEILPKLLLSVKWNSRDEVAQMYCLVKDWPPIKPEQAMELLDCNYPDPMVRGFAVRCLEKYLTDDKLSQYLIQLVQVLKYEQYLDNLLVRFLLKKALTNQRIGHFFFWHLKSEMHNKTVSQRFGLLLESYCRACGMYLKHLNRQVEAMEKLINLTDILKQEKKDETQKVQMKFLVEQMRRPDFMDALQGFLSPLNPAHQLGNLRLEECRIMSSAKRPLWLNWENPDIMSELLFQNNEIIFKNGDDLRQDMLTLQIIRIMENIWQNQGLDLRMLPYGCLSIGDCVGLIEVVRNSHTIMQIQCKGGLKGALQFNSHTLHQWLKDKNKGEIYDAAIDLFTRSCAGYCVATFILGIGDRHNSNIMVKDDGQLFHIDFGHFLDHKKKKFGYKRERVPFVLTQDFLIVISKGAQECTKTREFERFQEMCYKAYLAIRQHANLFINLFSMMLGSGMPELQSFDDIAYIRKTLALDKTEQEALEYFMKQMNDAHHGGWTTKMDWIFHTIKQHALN
In short: as §1

[4] = molecular target: T4, kinase enzymes (Homo sapiens, UniProt P42345); experiment: as above; settings: MTOR_h
T4 construct: purchased DiscoveRx Corporation, San Diego (contract service, KINOMEscan)
In short: as §1

[5] = molecular target: T5, kinase enzymes (Homo sapiens, UniProt P48736); experiment: as above; settings: PIK3Cγ_h
T5 construct: purchased DiscoveRx Corporation, San Diego (contract service, KINOMEscan)
T5 sequence (P48736 whole entry): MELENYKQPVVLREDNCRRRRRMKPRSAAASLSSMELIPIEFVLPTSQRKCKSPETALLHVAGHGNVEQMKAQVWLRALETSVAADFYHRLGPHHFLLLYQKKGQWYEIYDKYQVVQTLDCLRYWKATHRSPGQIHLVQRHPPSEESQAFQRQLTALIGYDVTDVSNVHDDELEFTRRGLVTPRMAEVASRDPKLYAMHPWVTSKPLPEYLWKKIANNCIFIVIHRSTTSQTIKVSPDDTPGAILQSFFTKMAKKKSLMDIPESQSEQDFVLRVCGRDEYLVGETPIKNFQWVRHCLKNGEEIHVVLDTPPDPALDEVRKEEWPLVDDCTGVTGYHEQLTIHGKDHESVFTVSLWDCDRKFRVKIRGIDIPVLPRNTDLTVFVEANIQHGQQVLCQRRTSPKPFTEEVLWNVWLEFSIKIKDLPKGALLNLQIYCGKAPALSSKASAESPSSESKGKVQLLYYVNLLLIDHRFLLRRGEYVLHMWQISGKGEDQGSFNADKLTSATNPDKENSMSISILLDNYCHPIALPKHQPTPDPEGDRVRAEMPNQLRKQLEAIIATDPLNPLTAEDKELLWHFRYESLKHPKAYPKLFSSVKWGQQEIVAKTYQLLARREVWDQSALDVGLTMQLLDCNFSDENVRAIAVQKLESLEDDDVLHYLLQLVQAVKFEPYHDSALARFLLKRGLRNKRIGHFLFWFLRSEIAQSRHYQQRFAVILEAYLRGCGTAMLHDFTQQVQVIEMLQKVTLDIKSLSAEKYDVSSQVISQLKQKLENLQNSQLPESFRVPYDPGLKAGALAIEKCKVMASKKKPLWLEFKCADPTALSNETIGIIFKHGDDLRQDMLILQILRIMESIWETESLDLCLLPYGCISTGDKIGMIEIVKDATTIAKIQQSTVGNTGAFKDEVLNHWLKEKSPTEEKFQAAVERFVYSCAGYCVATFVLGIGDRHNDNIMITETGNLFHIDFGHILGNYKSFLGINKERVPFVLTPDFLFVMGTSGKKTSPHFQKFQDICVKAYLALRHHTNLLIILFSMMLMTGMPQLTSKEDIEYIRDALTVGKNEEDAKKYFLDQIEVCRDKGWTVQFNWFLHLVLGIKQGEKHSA
In short: as §1

[6] = tested on: Akt phosphorylated at Ser473 in PC-3 cells; experiment: Cellular assay: phosphorylation of Akt at Ser473 in PC-3 cells (MSD ELISA); format: cell-based; settings: read-out: IC50 pAkt_S473
In short: (§2)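 Phospho-Akt in whole-cell lysates is quantified by electrochemiluminescent immunoassay using phospho-site capture and total-Akt detection antibodies.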

[7] = tested on: Akt phosphorylated at Thr308 in PC-3 cells; experiment: Cellular assay: phosphorylation of Akt at Thr308 in PC-3 cells (MSD ELISA); format: cell-based; settings: read-out: IC50 pAkt_Thr308
In short: as §2

[8] = Homo sapiens, PC-3, 1 h, PC-3 cells, 60 min compound incubation, MSD ELISA
[9] = PC-3 cells, 60 min compound incubation, MSD ELISA

T1 sequence (P42338 whole entry): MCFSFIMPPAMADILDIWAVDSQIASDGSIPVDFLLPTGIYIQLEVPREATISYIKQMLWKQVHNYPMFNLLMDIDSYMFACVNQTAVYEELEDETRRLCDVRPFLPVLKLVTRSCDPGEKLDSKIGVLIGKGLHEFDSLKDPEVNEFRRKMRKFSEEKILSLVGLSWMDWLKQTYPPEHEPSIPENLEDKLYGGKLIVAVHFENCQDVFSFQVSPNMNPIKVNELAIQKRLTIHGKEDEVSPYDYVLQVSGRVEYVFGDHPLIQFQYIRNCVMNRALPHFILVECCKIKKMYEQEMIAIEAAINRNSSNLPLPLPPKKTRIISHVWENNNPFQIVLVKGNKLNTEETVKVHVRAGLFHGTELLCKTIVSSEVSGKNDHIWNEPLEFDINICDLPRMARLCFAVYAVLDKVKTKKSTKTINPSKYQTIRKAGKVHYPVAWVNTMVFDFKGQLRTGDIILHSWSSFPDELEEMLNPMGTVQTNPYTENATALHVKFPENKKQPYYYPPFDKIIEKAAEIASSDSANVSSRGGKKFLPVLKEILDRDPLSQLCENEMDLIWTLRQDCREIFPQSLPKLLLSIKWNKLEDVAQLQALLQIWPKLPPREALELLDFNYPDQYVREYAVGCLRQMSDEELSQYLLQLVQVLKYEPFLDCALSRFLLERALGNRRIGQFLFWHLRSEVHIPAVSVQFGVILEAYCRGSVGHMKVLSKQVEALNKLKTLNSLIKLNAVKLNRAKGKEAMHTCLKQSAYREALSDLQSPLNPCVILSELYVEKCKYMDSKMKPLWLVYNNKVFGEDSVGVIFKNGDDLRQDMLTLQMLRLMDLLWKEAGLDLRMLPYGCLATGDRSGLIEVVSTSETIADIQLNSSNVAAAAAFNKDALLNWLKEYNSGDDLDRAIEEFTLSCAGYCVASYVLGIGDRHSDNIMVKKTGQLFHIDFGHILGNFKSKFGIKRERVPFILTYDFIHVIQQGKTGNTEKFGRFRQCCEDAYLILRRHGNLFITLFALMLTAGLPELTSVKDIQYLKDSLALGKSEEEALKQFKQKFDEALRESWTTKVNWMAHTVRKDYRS

Compound	Kd [1]	Kd [2]	Kd [3]	Kd [4]	Kd [5]	IC50 [6, 8]	IC50 [7, 8]	melting point	IC50 [6, 9]	IC50 [7, 9]	IC50 ([6]; Homo sapiens, PC-3, 1 h)	IC50 ([7]; Homo sapiens, PC-3, 1 h)
C[C@H](CO)NCc1cc(F)cc(N2CCCC2c2cc(C(=O)N(C)C)cc3ncc(N4CCOCC4)nc23)c1 (mixture of isomers) [Compound 48]	28 nM	724 nM	2460 nM	> 30200 nM	14800 nM	> 513 nM	~457 nM	80 °C	–	–	–	–
CC(Oc1cc(F)cc(F)c1)c1cc(C(=O)N2CCOCC2)cc2ncc(N3CCO[C@H](C)C3)nc12 (mixture of isomers) [Compound 56]	13 nM	2630 nM	6610 nM	> 30200 nM	> 30200 nM	> 513 nM	148 nM	55 °C	–	–	–	–
O=C(c1cc(C2CCCN2c2cc(F)cc(F)c2)c2nc(N3CCOCC3)cnc2c1)N1CCC[C@H]1CO (mixture of isomers) [Compound 64]	1 nM	58 nM	224 nM	15100 nM	1290 nM	13 nM	6 nM	80 °C	–	–	–	–
C[C@H](CO)NCc1ccc(F)cc1N1CCCC1c1cc(C(=O)N(C)C)cc2ncc(N3CCOCC3)nc12 (mixture of isomers) [Compound 67]	18 nM	617 nM	2460 nM	> 30200 nM	20900 nM	195 nM	166 nM	80 °C	–	–	–	–
CN[C@H]1CCN(C(=O)c2cc(C(C)Nc3ccc(F)c(F)c3)c3nc(N4CCOCC4)cnc3c2)C1 (mixture of isomers) [Compound 365]	1 nM	117 nM	2090 nM	> 30200 nM	2880 nM	20 nM	13 nM	80 °C	–	–	–	–
CC(Nc1cc(F)cc(F)c1)c1cc(C(=O)N2CCOCC2)cc2ncc(N3CCOCC3)nc12 (single isomer, unassigned) [Compound 8]	1 nM	109 nM	396 nM	20900 nM	3860 nM	–	–	100 °C	25 nM	20 nM	–	–
CC(Nc1cc(F)cc(F)c1)c1cc(C(=O)N(C)C)cc2ncc(N3CCOCC3)nc12 (single isomer, unassigned) [Compound 12]	0.4 nM	75 nM	276 nM	26300 nM	1140 nM	–	–	218 °C	18 nM	9 nM	–	–
CC(Nc1cc(F)cc(F)c1)c1cc(C(=O)N(C)C)cc2ncc(N3CCOCC3)nc12 (single isomer, unassigned) [Compound 13]	182 nM	5890 nM	23900 nM	> 30200 nM	> 30200 nM	–	–	217 °C	> 513 nM	> 513 nM	–	–
CNCCNC(=O)c1cc(C2CCCN2c2cc(F)cc(F)c2)c2nc(N3CCOCC3)cnc2c1 (single isomer, unassigned) [Compound 17]	0.1 nM	3 nM	25 nM	12300 nM	107 nM	~3 nM	1 nM	170 °C	–	–	–	–
CC(Oc1cc(F)cc(F)c1)c1cc(-c2cnc[nH]2)cc2ncc(N3CCOCC3)nc12 (single isomer, unassigned) [Compound 21]	63 nM	2240 nM	4790 nM	20000 nM	15800 nM	513 nM	~501 nM	184 °C	–	–	–	–
CC(Oc1cc(F)cc(F)c1)c1cc(-c2cnc[nH]2)cc2ncc(N3CCOCC3)nc12 (single isomer, unassigned) [Compound 22]	5620 nM	18600 nM	15100 nM	21900 nM	> 30200 nM	–	–	183 °C	> 513 nM	> 513 nM	–	–
CC(Nc1cccc(F)c1)c1cc(C(=O)N2CCC[C@H]2CO)cc2ncc(N3CCOCC3)nc12 (single isomer, unassigned) [Compound 115]	2 nM	324 nM	1660 nM	> 30200 nM	–	–	–	327 °C	66 nM	31 nM	–	–
CNCCN(C)C(=O)c1cc(C2CCCN2c2cc(F)cc(F)c2)c2nc(N3CCOCC3)cnc2c1 (stereo not shown) [Compound 18]	0.1 nM	1 nM	–	–	–	–	–	80 °C	–	–	1 nM	0.3 nM
CN(C)C(=O)c1cc(C2CCCN2c2cc(F)cc(F)c2)c2nc(N3CCOCC3)cnc2c1 (stereo not shown) [Compound 26]	2 nM	117 nM	174 nM	–	1320 nM	4 nM	~1.35 nM	80 °C	–	–	–	–
CC(c1cc(CO)cc2ncc(N3CCOCC3)nc12)N(C)c1cccc(F)c1 (stereo not shown) [Compound 111]	16 nM	1820 nM	6030 nM	–	1480 nM	389 nM	162 nM	80 °C	–	–	–	–
C[C@H](Nc1cccc(F)c1)c1cc(C(=O)NCCO)cc2ncc(N3CCOCC3)nc12 [Compound 118]	204 nM	10200 nM	14200 nM	–	2850 nM	> 513 nM	> 513 nM	237 °C	–	–	–	–
